Marks after values point to notes of the source that are not given here.
Columns and labels:
AH109A cells = experiment: in vitro invasion assay of AH109A cells beneath mesothelial cell (M-cell) monolayer; assay type: cell-based, rat
Experimental: The tumor invasion activity was measured using a partially modified version (Miura Y., Shiomi H., Sakai F., and Yagasaki K. 1997 Assay systems for screening food components that have anti-proliferative and anti-invasive activity to rat ascites hepatoma cells: In vitro and ex vivo effects of green tea extract. Cytotechnology 23: 127-132) of the in vitro invasion assay method of Akedo et al (Akedo H, Shinkai K, Mukai M, Mori Y, Tateishi R, Tanaka K, Yamamoto R, Morishita T. Interaction of rat ascites hepatoma cells with cultured mesothelial cell layers: a model for tumor invasion. Cancer Res. 1986 May; 46(5):2416-22).
Mesothelial cells (M-cells) directly prepared from rat mesenteries to culture were cultured for 7 to 10 days until a confluent monolayer was formed, and subsequently, the medium was changed to 3 ml of the respective experimental media. AH109A cells were overlayed onto the mesothelial cells at the density of 2.4×10^4 cells, and were gently agitated, and were cultured in a CO2 incubator. […] The numbers of cells and numbers of colonies of the AH109A cells that had infiltrated beneath the mesothelial cell monolayer were counted in 10 places of 2-mm square divisions selected at random for 1 dish, and the mean values of the numbers obtained by calculating these counts per square centimeter were taken as an index of the tumor invasion activity. […]

[1] = serum lipid levels in hepatoma-bearing rats; assay type: in vivo, rat; settings: for Serum lipid level (VLDL + LDL)-Cholesterol (B): difference between T-Ch and HDL-Ch; for Serum lipid level (VLDL + LDL)-Cholesterol (B) / AI (B/A), atherogenic index / Serum lipid level HDL-Cholesterol (A) / Serum lipid level Total Cholesterol / Serum lipid level Triglyceride: mean ± SEM of 11 rats
Experimental: Male Donryu rats of four weeks old were purchased from NRC Haruna, Gumma, Japan, and were preliminarily fed for 6 days in quintuple cages in a room with a controlled environment with light period of 8:00 to 20:00, room temperature of 22±1° C., and relative humidity of 60±5%. For the first 3 days, the animals were fed ad libitum with a stock pellet diet (CE-2; CLEA Japan, Tokyo), and for the next 3 days, they were fed a basal diet containing 20% milk casein (20C) (Table 1) ad libitum together with tap water in a glass container. Following the completion of this preparatory raising, the rats were divided into three groups (11 animals per group) with equal average body weights of the respective groups were equal, and 1.0×10^7 of AH109A cells suspended in PBS (−) were transplanted in the back of all the rats. From the time immediately after transplantation, in the respective experimental groups, the animals were fed the experimental diets shown in Table 2. During the experimental period, the body weight, food intake and solid tumor size (sum of length, width and height) were measured everyday. On the day that the animals were killed, animals were deprived of experimental diets at 9:00, but freely given water until they were killed 4 hours later. Blood was collected from carotid, and the liver and solid tumors were excised. The collected blood was allowed to stand for approximately 2 hours at room temperature, and then centrifuged for 10 minutes at 3000 rpm (1750×g), 4° C., to obtain serum. This blood serum was frozen and stored at −20° C. The livers and solid tumors were washed with physiological saline, blotted on filter paper, and weighed. Furthermore, feces from the 19th to 21st days after transplantation were collected, and these feces were frozen and stored at −20° C. for the measurement of the amounts of steroids excreted from the body. Serum cholesterol (Ch) and triglyceride (TG) concentration was measured. Total cholesterol (T-Ch) level, the high-density-lipoprotein (HDL-Ch) level (which is the supernatant fraction obtained by precipitating very-low-density-lipoprotein+low-density-lipoprotein ((VLDL+LDL)-Ch fractions) by the precipitation method using phosphotungstic acid were measured. The (VLDL+LDL)-Ch level was taken as the difference between the T-Ch and the HDL-Ch levels. Atherogenic index (AI: (VLDL+LDL)-Ch/HDL-Ch ratio) was calculated as an index of atherogenesis.

[2] = ENL diet groups versus control diet group

## O=C1OCC(Cc2cccc(O)c2)C1Cc1cccc(O)c1 (stereo not drawn) [Enterolactone, enterolactone]
AH109A cells; M-cells in tumor invasion assay
  ENL concentration at which cell toxicity was seen in the M-cells of the invasion assay system: ≥ 25 µM
AH109A cells; in vitro, 24 hours on M-cell monolayer
  effect on tumor invasion of AH109A cells: dose-dependent inhibitory effect
[1]; [2]
  (VLDL+LDL)-Ch in the blood serum: decreased significantly in a dose-dependent manner
  AI value, ratio of (VLDL+LDL)-Ch to HDL-Ch: tendency to decrease
[1]; ENL diet groups versus control diet group, not significant
  HDL-Ch in the blood serum: tendency increase
[1]; diet 10 ppm
  Serum lipid level (VLDL + LDL)-Cholesterol (B): 0.68 ± 0.12^b mmol/L
  AI (B/A), atherogenic index: 0.48 ± 0.09
  Serum lipid level HDL-Cholesterol (A): 1.45 ± 0.07 mmol/L
  Serum lipid level Total Cholesterol: 2.13 ± 0.14 mmol/L
  Serum lipid level Triglyceride: 0.98 ± 0.06 mmol/L
[1]; diet 100 ppm
  Serum lipid level (VLDL + LDL)-Cholesterol (B): 0.67 ± 0.08^b mmol/L
  AI (B/A), atherogenic index: 0.41 ± 0.05
  Serum lipid level HDL-Cholesterol (A): 1.63 ± 0.06 mmol/L
  Serum lipid level Total Cholesterol: 2.30 ± 0.12 mmol/L
  Serum lipid level Triglyceride: 0.93 ± 0.06 mmol/L
